Values joined by “and” are separate entries in the source; they are usually repeats but may differ in a detail not shown here. Equal values may be shown once.
What was measured:
Format in all cases: cell-based
[1] = target: DRD3 F1063.28A (Homo sapiens, UniProt P35462, F106A); test: cell-based
[2] = target: T1, 320 non-olfactory GPCRs (Homo sapiens, UniProt P18089)
T1 construct: expressed in transfected cells; host or cells: HTLA cells

[3] = target: 320 non-olfactory GPCRs (Homo sapiens, UniProt P25090)
[4] = target: T2, 320 non-olfactory GPCRs (Homo sapiens, UniProt P33032); conditions: receptor MC5R; replicate values, Fig_4g
T2 construct: expressed in transfected cells; host or cells: HTLA cells

[5] = target: DRD2 (D2 long receptor) (Homo sapiens, UniProt P14416); test: Gαi1-γ2 dissociation BRET assay, HEK293T; conditions: agonist
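Throughout, for Fold of Basal: compound tested at 1 µM final concentration.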
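Throughout, for GPCRome agonism screen response: fold over basal response of each receptor without drug.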

320 non-olfactory GPCRs (Homo sapiens, UniProt P25090), sequence (P25090 whole entry): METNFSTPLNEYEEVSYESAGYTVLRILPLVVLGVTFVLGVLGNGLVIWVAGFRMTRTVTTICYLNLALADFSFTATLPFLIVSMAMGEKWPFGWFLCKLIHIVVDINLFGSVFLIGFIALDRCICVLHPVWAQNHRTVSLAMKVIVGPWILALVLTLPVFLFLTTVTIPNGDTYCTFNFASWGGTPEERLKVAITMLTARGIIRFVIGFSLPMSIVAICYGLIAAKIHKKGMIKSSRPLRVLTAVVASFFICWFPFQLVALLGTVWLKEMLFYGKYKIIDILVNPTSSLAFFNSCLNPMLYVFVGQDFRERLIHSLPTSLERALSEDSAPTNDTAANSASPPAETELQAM
T2 sequence (P33032 whole entry): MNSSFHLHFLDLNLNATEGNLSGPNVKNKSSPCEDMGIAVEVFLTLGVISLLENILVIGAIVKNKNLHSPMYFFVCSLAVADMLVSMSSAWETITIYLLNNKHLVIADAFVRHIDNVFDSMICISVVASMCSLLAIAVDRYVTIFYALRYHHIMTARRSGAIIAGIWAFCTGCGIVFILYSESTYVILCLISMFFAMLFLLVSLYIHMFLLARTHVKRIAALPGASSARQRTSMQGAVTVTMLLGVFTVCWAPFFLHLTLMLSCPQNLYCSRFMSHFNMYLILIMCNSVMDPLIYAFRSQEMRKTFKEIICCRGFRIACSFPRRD
T1 sequence (P18089 whole entry): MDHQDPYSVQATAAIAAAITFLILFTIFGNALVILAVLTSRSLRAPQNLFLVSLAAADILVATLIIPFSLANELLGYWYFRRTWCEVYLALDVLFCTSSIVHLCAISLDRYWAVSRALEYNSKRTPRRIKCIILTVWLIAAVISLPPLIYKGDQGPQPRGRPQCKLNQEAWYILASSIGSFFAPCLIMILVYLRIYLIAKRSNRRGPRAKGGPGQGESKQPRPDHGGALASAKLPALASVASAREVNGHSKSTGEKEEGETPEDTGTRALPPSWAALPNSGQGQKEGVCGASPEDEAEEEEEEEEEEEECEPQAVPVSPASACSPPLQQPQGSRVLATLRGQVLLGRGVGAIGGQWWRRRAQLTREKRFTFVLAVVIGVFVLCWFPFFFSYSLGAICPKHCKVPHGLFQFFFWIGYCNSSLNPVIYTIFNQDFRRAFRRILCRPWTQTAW
DRD2 (D2 long receptor), sequence (P14416 whole entry): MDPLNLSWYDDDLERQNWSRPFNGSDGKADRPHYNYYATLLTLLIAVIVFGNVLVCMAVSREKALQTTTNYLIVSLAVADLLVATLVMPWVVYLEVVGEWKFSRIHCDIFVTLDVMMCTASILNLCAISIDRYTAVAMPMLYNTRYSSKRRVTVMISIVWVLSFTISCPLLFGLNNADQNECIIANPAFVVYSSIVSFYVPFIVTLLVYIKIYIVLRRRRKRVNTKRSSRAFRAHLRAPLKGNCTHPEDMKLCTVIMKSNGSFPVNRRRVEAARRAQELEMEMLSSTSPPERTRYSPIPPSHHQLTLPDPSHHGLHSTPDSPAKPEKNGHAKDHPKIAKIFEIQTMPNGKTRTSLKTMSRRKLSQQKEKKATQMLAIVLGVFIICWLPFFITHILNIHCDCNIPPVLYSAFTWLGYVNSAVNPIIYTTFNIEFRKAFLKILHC
DRD3 F1063.28A, sequence (P35462 whole entry F106A): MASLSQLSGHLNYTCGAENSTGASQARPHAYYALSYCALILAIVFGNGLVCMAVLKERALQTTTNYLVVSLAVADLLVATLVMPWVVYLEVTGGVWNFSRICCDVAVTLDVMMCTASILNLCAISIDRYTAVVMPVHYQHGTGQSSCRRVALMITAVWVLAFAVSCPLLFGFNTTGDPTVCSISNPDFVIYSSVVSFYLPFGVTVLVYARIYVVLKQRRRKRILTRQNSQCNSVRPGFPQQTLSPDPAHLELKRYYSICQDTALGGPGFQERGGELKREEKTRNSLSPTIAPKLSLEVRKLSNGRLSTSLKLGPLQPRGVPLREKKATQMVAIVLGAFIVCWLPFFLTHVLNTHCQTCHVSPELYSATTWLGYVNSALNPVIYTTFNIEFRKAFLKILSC

CCOc1cccc2cc(C(C)NCC3(O)CCCCC3)oc12 (centres unmarked) [O4LE6]
EC50 [1]: > 10 µM
Fold of Basal [2]: 0.5251 and 0.72 and 0.7774 and 1.019
Fold of Basal [3]: 1.561 and 1.917 and 2.561 and 1.97
GPCRome agonism screen response [4]: 1.253 and 1.116 and 1.497 and 1.062
EC50 [5]: 0.0241 µM

From PMC7044277 (Nature Communications, 2020)
